Test results from PubChem BioAssay (NCI).
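Protocol summary: plate cells (96-well), add compound at 5 concentrations, incubate 48 h, interpolate endpoints linearly. TGI: total growth inhibition.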

What was measured:
Experiment in all cases: DTP human tumour cell line panel, 48 h
786-0 renal = tested on: 786-0 renal
A498 renal = tested on: A498 renal
A549 NSCLC = tested on: A549 NSCLC
ACHN renal = tested on: ACHN renal
BT-549 breast = tested on: BT-549 breast
CAKI-1 renal = tested on: CAKI-1 renal
CCRF-CEM leukemia = tested on: CCRF-CEM leukemia
COLO 205 colon = tested on: COLO 205 colon
DU-145 prostate = tested on: DU-145 prostate
EKVX NSCLC = tested on: EKVX NSCLC
HCC-2998 colon = tested on: HCC-2998 colon
HCT-116 colon = tested on: HCT-116 colon
HCT-15 colon = tested on: HCT-15 colon
HL-60(TB) leukemia = tested on: HL-60(TB) leukemia
HOP-62 NSCLC = tested on: HOP-62 NSCLC
HOP-92 NSCLC = tested on: HOP-92 NSCLC
HS 578T breast = tested on: HS 578T breast
HT29 colon = tested on: HT29 colon
IGROV1 ovarian = tested on: IGROV1 ovarian
K-562 leukemia = tested on: K-562 leukemia
KM12 colon = tested on: KM12 colon
LOX IMVI melanoma = tested on: LOX IMVI melanoma
M14 melanoma = tested on: M14 melanoma
MALME-3M melanoma = tested on: MALME-3M melanoma
MCF7 breast = tested on: MCF7 breast
MDA-MB-231 breast = tested on: MDA-MB-231 breast
MDA-MB-435 = tested on: MDA-MB-435
MDA-N = tested on: MDA-N
MOLT-4 leukemia = tested on: MOLT-4 leukemia
NCI-H226 lung = tested on: NCI-H226 lung
NCI-H23 lung = tested on: NCI-H23 lung
NCI-H460 lung = tested on: NCI-H460 lung
NCI-H522 lung = tested on: NCI-H522 lung
NCI/ADR-RES ovarian = tested on: NCI/ADR-RES ovarian
OVCAR-3 ovarian = tested on: OVCAR-3 ovarian
OVCAR-4 ovarian = tested on: OVCAR-4 ovarian
OVCAR-5 ovarian = tested on: OVCAR-5 ovarian
OVCAR-8 ovarian = tested on: OVCAR-8 ovarian
PC-3 prostate = tested on: PC-3 prostate
RPMI-8226 leukemia = tested on: RPMI-8226 leukemia
RXF 393 renal = tested on: RXF 393 renal
SF-268 CNS = tested on: SF-268 CNS
SF-295 CNS = tested on: SF-295 CNS
SF-539 CNS = tested on: SF-539 CNS
SK-MEL-2 melanoma = tested on: SK-MEL-2 melanoma
SK-MEL-28 melanoma = tested on: SK-MEL-28 melanoma
SK-MEL-5 melanoma = tested on: SK-MEL-5 melanoma
SK-OV-3 ovarian = tested on: SK-OV-3 ovarian
SN12C renal = tested on: SN12C renal
SNB-19 CNS = tested on: SNB-19 CNS
SNB-75 CNS = tested on: SNB-75 CNS
SR leukemia = tested on: SR leukemia
SW-620 colon = tested on: SW-620 colon
T-47D breast = tested on: T-47D breast
TK-10 renal = tested on: TK-10 renal
U251 CNS = tested on: U251 CNS
UACC-257 melanoma = tested on: UACC-257 melanoma
UACC-62 melanoma = tested on: UACC-62 melanoma
UO-31 renal = tested on: UO-31 renal

`COc1ccc(-n2c(Cn3nnc(-c4cccnc4)n3)nn(C3OC(COC(=O)c4ccccc4)C(OC(=O)c4ccccc4)C3OC(=O)c3ccccc3)c2=S)cc1` (centres undefined) showed a TGI (786-0 renal) of over 100 µM, a TGI (A498 renal) of over 100 µM and a TGI (A549 NSCLC) of over 100 µM. The TGI (ACHN renal) was over 100 µM, the TGI (BT-549 breast) was over 100 µM and the TGI (CAKI-1 renal) was over 100 µM. For the same molecule, the TGI (CCRF-CEM leukemia) was over 100 µM, the TGI (COLO 205 colon) was over 100 µM and the TGI (DU-145 prostate) was over 100 µM. For the same molecule, the TGI (EKVX NSCLC) was over 100 µM, the TGI (HCC-2998 colon) was over 100 µM and the TGI (HCT-116 colon) was over 100 µM. The TGI (HCT-15 colon) was over 100 µM, the TGI (HL-60(TB) leukemia) was over 100 µM and the TGI (HOP-62 NSCLC) was over 100 µM. For the same molecule, the TGI (HOP-92 NSCLC) was over 100 µM, the TGI (HS 578T breast) was over 100 µM and the TGI (HT29 colon) was over 100 µM. It also gave a TGI (IGROV1 ovarian) of over 100 µM, a TGI (K-562 leukemia) of over 100 µM and a TGI (KM12 colon) of over 100 µM. For the same molecule, the TGI (LOX IMVI melanoma) was over 100 µM, the TGI (M14 melanoma) was over 100 µM and the TGI (MALME-3M melanoma) was over 100 µM. The TGI (MCF7 breast) was over 100 µM, the TGI (MDA-MB-231 breast) was over 100 µM and the TGI (MDA-MB-435) was over 100 µM. For the same molecule, the TGI (MDA-N) was over 100 µM, the TGI (MOLT-4 leukemia) was over 100 µM and the TGI (NCI-H226 lung) was 36.1 µM. It also gave a TGI (NCI-H23 lung) of over 100 µM, a TGI (NCI-H460 lung) of over 100 µM and a TGI (NCI-H522 lung) of over 100 µM. It also gave a TGI (NCI/ADR-RES ovarian) of over 100 µM, a TGI (OVCAR-3 ovarian) of over 100 µM and a TGI (OVCAR-4 ovarian) of over 100 µM. It also gave a TGI (OVCAR-5 ovarian) of over 100 µM, a TGI (OVCAR-8 ovarian) of over 100 µM and a TGI (PC-3 prostate) of over 100 µM. For the same molecule, the TGI (RPMI-8226 leukemia) was over 100 µM, the TGI (RXF 393 renal) was over 100 µM and the TGI (SF-268 CNS) was over 100 µM. For the same molecule, the TGI (SF-295 CNS) was over 100 µM, the TGI (SF-539 CNS) was over 100 µM and the TGI (SK-MEL-2 melanoma) was over 100 µM. The TGI (SK-MEL-28 melanoma) was over 100 µM, the TGI (SK-MEL-5 melanoma) was over 100 µM and the TGI (SK-OV-3 ovarian) was over 100 µM. For the same molecule, the TGI (SN12C renal) was over 100 µM, the TGI (SNB-19 CNS) was over 100 µM and the TGI (SNB-75 CNS) was over 100 µM. For the same molecule, the TGI (SR leukemia) was over 100 µM, the TGI (SW-620 colon) was over 100 µM and the TGI (T-47D breast) was over 100 µM. It also gave a TGI (TK-10 renal) of over 100 µM, a TGI (U251 CNS) of over 100 µM and a TGI (UACC-257 melanoma) of over 100 µM. For the same molecule, the TGI (UACC-62 melanoma) was over 100 µM and the TGI (UO-31 renal) was over 100 µM.
`CC(=O)O[C@H]1CC[C@@]2(C)C(=CC[C@@H]3[C@@H]2CC[C@](C)(c2nnc(C)o2)[C@H]3CC#N)C1` gave a TGI (786-0 renal) of over 100 µM, a TGI (A498 renal) of over 100 µM and a TGI (A549 NSCLC) of over 100 µM. The TGI (ACHN renal) was over 100 µM, the TGI (BT-549 breast) was over 100 µM and the TGI (CAKI-1 renal) was over 100 µM. For the same molecule, the TGI (CCRF-CEM leukemia) was over 100 µM, the TGI (COLO 205 colon) was over 100 µM and the TGI (DU-145 prostate) was over 100 µM. For the same molecule, the TGI (EKVX NSCLC) was over 100 µM, the TGI (HCT-116 colon) was over 100 µM and the TGI (HCT-15 colon) was over 100 µM. The TGI (HL-60(TB) leukemia) was over 100 µM, the TGI (HOP-62 NSCLC) was over 100 µM and the TGI (HOP-92 NSCLC) was over 100 µM. For the same molecule, the TGI (HS 578T breast) was over 100 µM, the TGI (HT29 colon) was over 100 µM and the TGI (IGROV1 ovarian) was over 100 µM. It also gave a TGI (K-562 leukemia) of over 100 µM, a TGI (KM12 colon) of over 100 µM and a TGI (LOX IMVI melanoma) of over 100 µM. For the same molecule, the TGI (M14 melanoma) was over 100 µM, the TGI (MALME-3M melanoma) was over 100 µM and the TGI (MCF7 breast) was over 100 µM. The TGI (MDA-MB-231 breast) was over 100 µM, the TGI (MDA-MB-435) was over 100 µM and the TGI (MDA-N) was over 100 µM. The TGI (MOLT-4 leukemia) was over 100 µM, the TGI (NCI-H226 lung) was over 100 µM and the TGI (NCI-H23 lung) was over 100 µM. For the same molecule, the TGI (NCI-H522 lung) was over 100 µM, the TGI (NCI/ADR-RES ovarian) was over 100 µM and the TGI (OVCAR-3 ovarian) was over 100 µM. The TGI (OVCAR-4 ovarian) was over 100 µM, the TGI (OVCAR-5 ovarian) was over 100 µM and the TGI (OVCAR-8 ovarian) was over 100 µM. For the same molecule, the TGI (PC-3 prostate) was over 100 µM, the TGI (RPMI-8226 leukemia) was over 100 µM and the TGI (RXF 393 renal) was over 100 µM. The TGI (SF-268 CNS) was over 100 µM, the TGI (SF-295 CNS) was over 100 µM and the TGI (SF-539 CNS) was over 100 µM. The TGI (SK-MEL-2 melanoma) was over 100 µM, the TGI (SK-MEL-5 melanoma) was over 100 µM and the TGI (SK-OV-3 ovarian) was over 100 µM. For the same molecule, the TGI (SN12C renal) was over 100 µM, the TGI (SNB-19 CNS) was over 100 µM and the TGI (SNB-75 CNS) was over 100 µM. It also gave a TGI (SR leukemia) of over 100 µM, a TGI (SW-620 colon) of over 100 µM and a TGI (T-47D breast) of over 100 µM. The TGI (TK-10 renal) was over 100 µM, the TGI (U251 CNS) was over 100 µM and the TGI (UACC-257 melanoma) was over 100 µM. The TGI (UACC-62 melanoma) was over 100 µM and the TGI (UO-31 renal) was over 100 µM.
Molecule `Cc1cc(=O)oc2cc(OC(=O)Nc3ccccc3)ccc12` has a TGI (786-0 renal) of over 100 µM, a TGI (A498 renal) of over 100 µM and a TGI (A549 NSCLC) of over 100 µM. The TGI (ACHN renal) was over 100 µM, the TGI (BT-549 breast) was over 100 µM and the TGI (CAKI-1 renal) was over 100 µM. It also gave a TGI (CCRF-CEM leukemia) of 74.2 µM, a TGI (COLO 205 colon) of over 100 µM and a TGI (DU-145 prostate) of over 100 µM. The TGI (EKVX NSCLC) was over 100 µM, the TGI (HCC-2998 colon) was over 100 µM and the TGI (HCT-116 colon) was over 100 µM. The TGI (HCT-15 colon) was over 100 µM, the TGI (HL-60(TB) leukemia) was 44.9 µM and the TGI (HOP-62 NSCLC) was over 100 µM. The TGI (HOP-92 NSCLC) was 75.4 µM, the TGI (HS 578T breast) was over 100 µM and the TGI (HT29 colon) was over 100 µM. It also gave a TGI (IGROV1 ovarian) of over 100 µM, a TGI (K-562 leukemia) of over 100 µM and a TGI (KM12 colon) of over 100 µM. It also gave a TGI (LOX IMVI melanoma) of over 100 µM, a TGI (M14 melanoma) of over 100 µM and a TGI (MALME-3M melanoma) of over 100 µM. For the same molecule, the TGI (MCF7 breast) was over 100 µM, the TGI (MDA-MB-231 breast) was over 100 µM and the TGI (MDA-MB-435) was over 100 µM. It also gave a TGI (MDA-N) of over 100 µM, a TGI (MOLT-4 leukemia) of over 100 µM and a TGI (NCI-H226 lung) of over 100 µM. The TGI (NCI-H23 lung) was over 100 µM, the TGI (NCI-H460 lung) was over 100 µM and the TGI (NCI-H522 lung) was over 100 µM. The TGI (NCI/ADR-RES ovarian) was over 100 µM, the TGI (OVCAR-3 ovarian) was over 100 µM and the TGI (OVCAR-4 ovarian) was over 100 µM. The TGI (OVCAR-5 ovarian) was over 100 µM, the TGI (OVCAR-8 ovarian) was over 100 µM and the TGI (PC-3 prostate) was over 100 µM. For the same molecule, the TGI (RPMI-8226 leukemia) was 62.4 µM, the TGI (RXF 393 renal) was over 100 µM and the TGI (SF-268 CNS) was over 100 µM. It also gave a TGI (SF-295 CNS) of over 100 µM, a TGI (SF-539 CNS) of over 100 µM and a TGI (SK-MEL-2 melanoma) of over 100 µM. It also gave a TGI (SK-MEL-28 melanoma) of over 100 µM, a TGI (SK-MEL-5 melanoma) of over 100 µM and a TGI (SK-OV-3 ovarian) of over 100 µM. For the same molecule, the TGI (SN12C renal) was over 100 µM, the TGI (SNB-19 CNS) was over 100 µM and the TGI (SNB-75 CNS) was over 100 µM. For the same molecule, the TGI (SR leukemia) was 83.5 µM, the TGI (SW-620 colon) was over 100 µM and the TGI (T-47D breast) was over 100 µM. For the same molecule, the TGI (TK-10 renal) was over 100 µM, the TGI (U251 CNS) was over 100 µM and the TGI (UACC-257 melanoma) was over 100 µM. It also gave a TGI (UACC-62 melanoma) of over 100 µM and a TGI (UO-31 renal) of over 100 µM.
